{"source": "patent US9795677B2", "about": "“Method for reducing damage caused by free radicals” (Original BioMedicals Co., Ltd, priority 2012, dated 2017)", "key": {"[1]": {"system": "mouse embryonic liver cells (BNLCL.2)", "assay": "Comet Assay of UV-irradiated cells (DNA damage)", "type": "cell-based", "conditions": "BNLCL.2 cells, UVB 100 J·m-2; treatment given 30 minutes or 2 hr before UV irradiation; API and FeP 40 folds, FePA 20 folds dilution with PBS", "protocol": "UV irradiation of the cells was used in this experiment to simulate the effects of radiation on normal cells, and the results were evaluated by Comet Assay. Comet Assay is a fast, sensitive and convenient method for examining DNA damage and is widely used in studying DNA damage caused by radiation, examining DNA crosslink, evaluating genotoxicity of drugs and identifying cell apoptosis, etc. […]\nThe mouse embryonic liver cells (BNLCL.2) were inoculated onto a 35 mm culture dish at the density of 3*10^5 cell/mL and cultured for at least 20 hours before subjected to the test. […] The treated cells were then collected with a scraper, counted, and centrifuged at 1,200 rpm for 5 minutes. […]\nThe bottle containing LM agarose was placed in 95° C. water for 5 minutes with loosed cap and then transferred to a 37° C. water bath for at least 20 minutes. […] The resulting images were analyzed using the epifluorescence microscope (the maximum excitation and emission wavelength of SYBR®Green I are 494 nm and 521 nm, respectively.) The fluorescence filter was also adjusted accordingly for efficient lighting) 200×."}, "NMRI mice": {"system": "NMRI mice", "assay": "Acute radiation protection in irradiated mice (WBC number)", "type": "in vivo, mouse", "conditions": "8Gy; amifostine 6.25 mg/kg i.v. 30 min before irradiation; 30 days after treatment", "protocol": "Efficacy Result: In animal study, 30-day old NMRI mice weighing 20 to 30 g were tested for acute radiation protection. For radiation control group, mice were given 1, 4, and 8 Gy irradiation in 10 minutes, and for the standard treatment group, FDA-approved amifostine (6.25 mg/kg) was injected intravenously, and 30 minutes later the animals were given 8 Gy irradiation in 10 minutes. The 30 mins duration design is based on the short half-life of amifostine. A-01 indicates FePA with a formulation ratio of PEG-b-PGA:FeCl2.4H2O:amifostine=4:1:1 (w:w:w). The animals in the test group A-01 were administered intravenously with 37.5 mg/kg A-01 (containing the same amount of amifostine as used in the standard treatment group), and 120 minutes post injection, the animals were given 8 Gy radiation in 10 minutes. WBC number and survival rates were analyzed 30 days after treatment."}, "[2]": {"conditions": "cited from earlier work"}}, "data": [{"compound": "NCCCNCCSP(=O)(O)O", "note": "[Amifostine]", "values": [{"measurement": "average percentage of damaged DNA in the tail of the Comet (% TDNA) compared with the positive control group (UV)", "setting": "[1]", "value": "significantly reduced"}, {"measurement": "WBC", "setting": "NMRI mice", "value": "3.04-3.80 1000/cm^3"}, {"measurement": "amifostine remaining after i.v. injection", "setting": "[2]; 6 minutes after i.v. injection", "value": 10, "unit": "%"}, {"measurement": "distribution half-life", "setting": "[2]; patients", "value": "less than 1 minute"}, {"measurement": "elimination half-life", "setting": "[2]; patients", "value": 8, "unit": "min"}]}]}
